Where “and” joins values, the source holds several entries; their conditions need not be identical. Equal values may be shown once.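 Exposure lasted 48 hours, with cells grown in 96-well plates and compounds tested at five concentrations. GI50 is the concentration that inhibits growth by half. The concentration for full growth arrest is given as TGI.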

One assay deals with SK-MEL-28 melanoma. Put plainly: NCI-60 cell line screen, 48 h.
Turning to `CC[C@H](C)[C@H](NC(=O)c1cnccn1)C(=O)N(C)[C@H](C[C@@H](OC(C)=O)c1nc(C(=O)N[C@@H](Cc2ccccc2)C[C@H](C)C(=O)OC)cs1)C(C)C`, the GI50 is 2.37 µM and the TGI is > 33.3 µM.
On to `N#CC(C#N)SCc1ccccc1`, for which the TGI is > 100 µM.

A further assay has as its system SN12C renal. Put plainly: NCI-60 cell line screen, 48 h.
As to `CC[N+]1(C)CCC(O)(c2ccc(C)cc2)C(C(=O)c2ccc(C)cc2)C1` (centres undefined), the TGI is > 100 µM.
As for `CC(=O)c1cccc(N(/C=C/C(=O)C(F)(F)F)CC(=O)c2ccc(Cl)cc2)c1`, the GI50 was > 100 µM and the TGI was > 100 µM.
On to `C#C[C@]1(O)CC[C@H]2[C@@H]3CC=C4c5nc(Nc6ccccn6)sc5CC[C@]4(C)[C@H]3CC[C@@]21C`, for which the GI50 is 1.75 µM and the TGI was determined as 3.62 µM.
As for `CSc1ccc(C2=Nn3c(nnc3-c3ccc(F)c(Cl)c3)SC2)cc1`, the GI50 is 2.67 µM and the TGI is 9.78 µM.
Regarding `O=c1oc2ccccc2c(O)c1C=NC(=S)c1ccncc1`, the TGI is > 100 µM.
As for `CC(C)(C)OC(=O)NCC(C#N)CNC(=O)OC(C)(C)C`, the TGI was > 100 µM.
On to `COc1ccc(-c2cc(-c3ccc(Cl)cc3)c(C#N)c(=O)n2CCCCC(=O)Nc2ccccc2N)cc1`, for which the GI50 is 9.32 µM and the TGI was > 100 µM.
For `CC1(C)C(=O)C(O)=CC2C1=CCC1C2(C)C(=O)CC2(C)C(C(C)(O)C(=O)CC(O)C(C)(C)O)C(O)CC12C` (centres undefined), the TGI is > 90.4 µM.
Same read-out and setting: then `Cc1cc2c(C(C)C)c(O)c(O)c(C=Nc3cc(C(F)(F)F)ccc3Cl)c2c(O)c1-c1c(C)cc2c(C(C)C)c(O)c(O)c(C=Nc3cc(C(F)(F)F)ccc3Cl)c2c1O`, with > 100 µM.
Take `COc1cc(C2c3cc4c(cc3[C@@H](Nc3ccc(N(C)C)cc3)[C@H]3COC(=O)C23)OCO4)cc(OC)c1O` (some centres undefined): the GI50 was 0.453 µM; the TGI is 2.41 µM and 3.64 µM.
For `O=c1nc(-c2ccccc2)c2c3c(cccn13)CCC2`, the TGI was > 100 µM.
For the compound `COc1ccc([C@H]2CC(=O)N3CCCC3N2)cc1` (some centres undefined), the TGI is > 100 µM.
Take `C=C(C)C1CC2C(C)=C(OC(C)=O)C1n1c(=O)c3cc4ccccc4cc3c(=O)n12` (centres undefined): the TGI is > 100 µM.
As to `COc1cc2cc(Oc3ccc(NC(=O)c4cccc(C(F)(F)F)c4)cc3)c(C)nc2cc1OC`, the GI50 was 6.39 µM and the TGI is > 100 µM.
In the case of `COc1cc(Nc2ccnc(N3CCN(c4ccnc5cc(Cl)ccc45)CC3)n2)cc(OC)c1`, the GI50 was 1.28 µM and the TGI was > 100 µM.
As to `O=C(CCc1nc(=S)[nH][nH]1)NC12CC3CC(CC(C3)C1)C2`, the TGI was > 100 µM.
With `CSc1ccc(/C=C2\CNC/C(=C\c3ccc(SC)cc3)C2=O)cc1`, the GI50 is 150 µg/mL; the TGI is > 371 µM and 150 µg/mL.
Consider `COC(=O)C1=C(OC(=O)c2ccc(Cl)cc2)C(C(=O)OC)[C@@]2(O)[C@@H](C(=O)OC)C(c3ccccc3C(F)(F)F)C[C@@H]1[C@@H]2C(=O)OC` (some centres undefined), for which the GI50 is 2.08 µM and the TGI was 6.66 µM.
As to `CC[C@H](C)[C@H](NC(=O)c1cnccn1)C(=O)N(C)[C@H](C[C@@H](OC(C)=O)c1nc(C(=O)N[C@@H](Cc2ccccc2)C[C@H](C)C(=O)OC)cs1)C(C)C`, the GI50 was 2.22 µM and the TGI was > 33.3 µM.
`N#CC(C#N)SCc1ccccc1`: the TGI is > 100 µM.

The test system of another assay is SNB-75 CNS. Put plainly: NCI-60 cell line screen, 48 h.
`CSc1ccc(C2=Nn3c(nnc3-c3ccc(F)c(Cl)c3)SC2)cc1`: the GI50 is 4.67 µM and the TGI was 16 µM.
In the case of `O=c1oc2ccccc2c(O)c1C=NC(=S)c1ccncc1`, the TGI is > 100 µM.
Regarding `CC1(C)C(=O)C(O)=CC2C1=CCC1C2(C)C(=O)CC2(C)C(C(C)(O)C(=O)CC(O)C(C)(C)O)C(O)CC12C` (centres undefined), the GI50 was 1.74 µM and the TGI was 4.77 µM.
As to `COc1cc(C2c3cc4c(cc3[C@@H](Nc3ccc(N(C)C)cc3)[C@H]3COC(=O)C23)OCO4)cc(OC)c1O` (some centres undefined), the GI50 is 0.881 µM; the TGI is 9.26 µM and 10.9 µM.
As to `O=c1nc(-c2ccccc2)c2c3c(cccn13)CCC2`, the TGI is > 100 µM.
As for `COc1ccc([C@H]2CC(=O)N3CCCC3N2)cc1` (some centres undefined), the TGI is > 100 µM.
Turning to `C=C(C)C1CC2C(C)=C(OC(C)=O)C1n1c(=O)c3cc4ccccc4cc3c(=O)n12` (centres undefined), the TGI is > 85.5 µM.
As for `COc1cc(Nc2ccnc(N3CCN(c4ccnc5cc(Cl)ccc45)CC3)n2)cc(OC)c1`, the GI50 is 1.95 µM and the TGI was 6.81 µM.
Take `O=C(CCc1nc(=S)[nH][nH]1)NC12CC3CC(CC(C3)C1)C2`: the TGI was > 100 µM.
On to `CSc1ccc(/C=C2\CNC/C(=C\c3ccc(SC)cc3)C2=O)cc1`, for which the GI50 is 23.2 µM and 7.91 µg/mL; the TGI was 86.4 µM and 47.5 µM and 27.9 µg/mL.
On to `N#CC(C#N)SCc1ccccc1`, for which the TGI was > 96 µM.

The subject of a further assay is SR leukemia. Put plainly: NCI-60 cell line screen, 48 h.
`CC[N+]1(C)CCC(O)(c2ccc(C)cc2)C(C(=O)c2ccc(C)cc2)C1` (centres undefined) came in with a TGI of 39.6 µM.
Consider `C#C[C@]1(O)CC[C@H]2[C@@H]3CC=C4c5nc(Nc6ccccn6)sc5CC[C@]4(C)[C@H]3CC[C@@]21C`, for which the GI50 is 0.542 µM and the TGI was found to be 3.24 µM.
Take `CC(C)(C)OC(=O)NCC(C#N)CNC(=O)OC(C)(C)C`: the TGI is > 100 µM.
`COc1ccc(-c2cc(-c3ccc(Cl)cc3)c(C#N)c(=O)n2CCCCC(=O)Nc2ccccc2N)cc1`: the GI50 was 1.09 µM and the TGI is > 100 µM.
The compound `CC1(C)C(=O)C(O)=CC2C1=CCC1C2(C)C(=O)CC2(C)C(C(C)(O)C(=O)CC(O)C(C)(C)O)C(O)CC12C` (centres undefined) yielded a TGI of 25.3 µM.
Same read-out and setting: then `Cc1cc2c(C(C)C)c(O)c(O)c(C=Nc3cc(C(F)(F)F)ccc3Cl)c2c(O)c1-c1c(C)cc2c(C(C)C)c(O)c(O)c(C=Nc3cc(C(F)(F)F)ccc3Cl)c2c1O`, with > 100 µM.
The compound `COc1cc(C2c3cc4c(cc3[C@@H](Nc3ccc(N(C)C)cc3)[C@H]3COC(=O)C23)OCO4)cc(OC)c1O` (some centres undefined) yielded a TGI of 0.924 µM.
On to `O=c1nc(-c2ccccc2)c2c3c(cccn13)CCC2`, for which the TGI was > 100 µM.
`COc1ccc([C@H]2CC(=O)N3CCCC3N2)cc1` (some centres undefined): the TGI is > 100 µM.
Still for that read-out and setting: then `C=C(C)C1CC2C(C)=C(OC(C)=O)C1n1c(=O)c3cc4ccccc4cc3c(=O)n12` (centres undefined), with > 93 µM.
For the compound `COc1cc2cc(Oc3ccc(NC(=O)c4cccc(C(F)(F)F)c4)cc3)c(C)nc2cc1OC`, the GI50 is 3.25 µM and the TGI was > 100 µM.
In the case of `O=C(CCc1nc(=S)[nH][nH]1)NC12CC3CC(CC(C3)C1)C2`, the TGI was > 100 µM.

Source of the values: PubChem BioAssay (NCI).
